Tests used:
[1] = UV/Vis release rate measurement of Bitrex in water; type: physicochemical; settings: 100 mg in 40 ml water, shaken
Protocol: 2 ml of the mixture was removed at each time interval for analysis.

[2] = Visual release rate test of Bitrex in water; type: physicochemical; settings: after 15 minutes; 0.4 mg agitated in 10 ml water
Protocol: 0.4 mg of sample was agitated in 10 ml of water and observed over 8 hours.

- % release of Bitrex relative to the total content ([1]; 5 minutes): 99.6%
- % release of Bitrex relative to the total content ([1]; 15 minutes): 99.8%
- visual observation of dissolution [2]: fully dissolved
SMILES: CC[N+](CC)(CC(=O)Nc1c(C)cccc1C)Cc1ccccc1 [Uncoated Bitrex, Denatonium benzoate]
